Measured values: publication PMC3750255, “Inhibition of Mycoplasma pneumoniae growth by FDA-approved anticancer and antiviral nucleoside and nucleobase analogs” (BMC Microbiology, 2013)
≈ marks a conversion by molar mass, not a printed value. Like-named read-outs stand apart in the source and are kept apart here.

Legend:
[1] = system: M. pneumoniae thyA mutant (lacking TS activity); test: microbe, parasite or virus in culture; format: cell-based, Mycoplasma pneumoniae; details: Mycoplasmoides pneumoniae, read-out: thyA mutant MIC
Protocol: (§1) A series dilution of each compound in Mycoplasma growth medium was added to Mpn cultures in 96-well plates. The plates were sealed and incubated at 37°C. Mpn growth was monitored by using growth index value e.g. the ratio of absorbance at 450 nm and 560 nm of the culture medium. Thirty nucleoside and nucleobase analogs and a nucleoside transporter inhibitor were included, and two Mpn strains, wild type and a thyA mutant (lacking TS activity), were used.
(§2) Nucleoside and nucleobase analogs were dissolved in dimethyl sulfoxide (DMSO) as stock solutions and diluted with Mpn culture medium to the desired concentration immediately prior to use.
(§3) Mpn laboratory strain M129 wild type and a thyA mutant strain [31] were used in this study. Mpn was cultured at 37°C in a CO2 incubator using 75 cm^2 tissue culture flasks containing 50 ml Hayflick’s medium, and harvested at day 4 when the medium color change was observed. The cells were harvested and the pellet was resuspended in 6 ml fresh medium and the cfu/ml was determined by serial dilution (10-fold) and plating on broth agar plate. Colonies was counted and cfu/ml was calculated.
(§4) Inhibition studies were performed in 96-well plates containing 200 μl Mpn culture (approximately 10^6 cfu ml^-1) in Hayflick’s medium and 200 μl each compound in series dilutions (2-fold) with the growth medium, with three to four replicas. The plates were sealed with clear adhesive sheets and incubated at 37°C incubator. Absorbance ratio at 450 nm and 560 nm was used as Mpn growth index, which was measured daily, and by visual detection for at least 8 days, as previously described. […] The MICs (minimal inhibitory concentration required to inhibit Mpn growth to 90%) were determined as the lowest concentration at which the growth index was ≈ 10% of the control values (at the time when the control culture medium color turned yellow), essentially as described.

[2] = system: M. pneumoniae wild type (laboratory strain M129); test: Mpn growth inhibition in 96-well plates (growth index A450/A560), wild type strain; format: cell-based, Mycoplasma pneumoniae; details: for MIC: Mycoplasmoides pneumoniae
Protocol: as §1, §2, §3, §4

human HPRT = biological target: T1, human HPRT (Homo sapiens, UniProt P00492); test: HPRT inhibition, DE-81 filter paper assay; format: biochemical
T1 construct: made in house
T1 sequence (P00492 1-218): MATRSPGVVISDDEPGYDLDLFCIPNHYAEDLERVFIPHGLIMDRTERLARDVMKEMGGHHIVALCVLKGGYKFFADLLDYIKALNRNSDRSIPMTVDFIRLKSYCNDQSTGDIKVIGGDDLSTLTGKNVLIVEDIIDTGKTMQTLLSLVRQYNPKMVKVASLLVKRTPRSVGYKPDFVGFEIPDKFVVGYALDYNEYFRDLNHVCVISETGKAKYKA
Protocol: (§5) The reaction was initiated by addition of the enzyme, and at 0, 5, 10, and 15 min intervals, 10 μl reaction mixture was withdrawn and spotted onto the DE81 filter paper and dried. The unreacted substrate was washed and the products were eluted and counted in a liquid scintillation counter. With [^3H]-Gua as substrate the reaction (in a total of 25 μl) was initiated by addition of the enzyme (10 μl), incubated at 37°C for 2 min, stopped by addition of 1 M HCl (10 μl), and placed immediately on ice. After neutralization, 15 μl of the mixture was spotted onto the DE81-filter paper. The filters were then washed, and the products were eluted and counted by liquid scintillation.

Mpn HPRT = biological target: T2, Mpn HPRT (Mycoplasmoides pneumoniae, UniProt P75119); test: biochemical
T2 sequence (P75119 1-175): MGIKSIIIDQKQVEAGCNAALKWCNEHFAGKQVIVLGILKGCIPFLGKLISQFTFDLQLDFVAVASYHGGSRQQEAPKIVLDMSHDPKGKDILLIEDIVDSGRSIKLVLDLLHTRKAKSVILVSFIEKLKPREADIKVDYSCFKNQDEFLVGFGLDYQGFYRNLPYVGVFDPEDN
Protocol: as §5

Mpn wild type cells = test: Uptake and metabolism of tritium labelled natural nucleoside and nucleobases in the presence of analogs; format: cell-based, Mycoplasma pneumoniae; details: 10 μM analog, 70 hours
Protocol: The cells were harvested and analyzed essentially as described. Analogs used were dipyridamole, 6-thioguanine (6-TG), trifluorothymidine (TFT), gemcitabine (dFdC) and 5-fluorodeoxyuridine (5FdU). Total uptake is the percent of radioactivity recovered in the cells divided by total radioactivity added to the growth medium. Percent of acid insoluble (radioactivity found in DNA and RNA) was also calculated. These experiments were done more than three times and data are given as mean ± SD.

[3] = IC50 Human HPRT, substrate hypoxanthine, 10 μM [3H]-hypoxanthine
[4] = minimal concentration producing 90% inhibition, wild type Mpn, read-out: Wild type MIC
[5] = 37°C, radioactivity in cells / total added
[6] = acid insoluble fraction / total in cells

SMILES | MIC [1] [µg/mL] | MIC ([2]; read-out: Wild type MIC) [µg/mL] | further results
Cc1cn([C@H]2C=C[C@@H](CO)O2)c(=O)[nH]c1=O [Stavudine] | 17.8 (≈ 79.4 µM) | 7.8 (≈ 34.8 µM) | 
Nc1nc(F)nc2c1ncn2[C@@H]1O[C@H](COP(=O)(O)O)[C@@H](O)[C@@H]1O [Fludarabine phosphate] | > 500 | > 500 | 
CN(C)[C@@H]1C(O)=C(C(N)=O)C(=O)[C@@]2(O)C(O)=C3C(=O)c4c(O)cccc4[C@@](C)(O)[C@H]3C[C@@H]12 [tetracycline] |  |  | Mpn growth in control cultures (in words) ([2]; 2 μg/ml tetracycline, up to 8 days): no growth; MIC ([2]; strain not specified, 90% growth inhibition, read-out: MIC (Mpn growth)): 0.1 µg/mL (≈ 0.225 µM)
CC(=O)CCCCn1c(=O)c2c(ncn2C)n(C)c1=O [Pentoxifylline] | > 500 | 62.5 (≈ 225 µM) | Inhibition of wild type Mpn growth (in words) ([2]; wild type Mpn): inhibited wild type Mpn
Sc1ncnc2nc[nH]c12 [6-mercaptopurine (6-MP), 6-mercaptopurine] | > 500 | > 500 | IC50 (human HPRT; 10 μM [3H]-guanine, read-out: IC50 Human HPRT, substrate guanine): 25.1 ± 3 µM; IC50 (human HPRT; [3]): 22.5 ± 3.6 µM; IC50 (Mpn HPRT; substrate guanine, 10 μM [3H]-guanine): 282 ± 21 µM; IC50 (Mpn HPRT; substrate hypoxanthine, 10 μM [3H]-hypoxanthine): 89.7 ± 14.5 µM; Inhibition of Mpn growth (in words) ([2]; strain not specified): did not inhibit Mpn growth
Nc1ccn([C@H]2CC[C@@H](CO)O2)c(=O)n1 [Zalcitabine] | > 500 | > 500 | 
Cn1c(=O)c2c(ncn2C)n(C)c1=O [Caffeine] | > 500 |  | IC50 (human HPRT; [3]): 2510 ± 156 µM; MIC [2, 4]: > 500 µg/mL
Oc1ncnc2[nH]ncc12 [Allopurinol] | > 500 |  | MIC [2, 4]: > 500 µg/mL
Nc1ncn([C@@H]2O[C@H](CO)[C@@H](O)[C@H]2O)c(=O)n1 [5-azacytidine] | > 500 | > 500 | 
Nc1nc(O)c2ncn(COC(CO)CO)c2n1 [Gancyclovir] | > 500 | 7.8 (≈ 30.6 µM) | Inhibition of wild type Mpn growth (in words) ([2]; wild type Mpn): inhibited wild type Mpn
COc1c(C)c2c(c(O)c1C/C=C(\C)CCC(=O)OCCN1CCOCC1)C(=O)OC2 [Mycophenolate mofetil] | 250 (≈ 577 µM) | 250 (≈ 577 µM) | 
O=c1[nH]cc(F)c(=O)[nH]1 [5-fluorouracil] | 31.2 (≈ 240 µM) | 31.2 (≈ 240 µM) | 
Nc1ccn(C[C@@H](CO)OCP(=O)(O)O)c(=O)n1 [Cidofovir] | 31.2 (≈ 112 µM) | 31.2 (≈ 112 µM) | 
O=c1[nH]c(=O)n([C@H]2C[C@H](O)[C@@H](CO)O2)cc1I [5-iododeoxyuridine] | > 500 | 15.6 (≈ 44.1 µM) | Inhibition of wild type Mpn growth (in words) ([2]; wild type Mpn): only inhibited the wild type Mpn growth
Nc1ccn([C@@H]2O[C@H](CO)[C@@H](O)C2(F)F)c(=O)n1 [Gemcitabine (dFdC), Gemcitabine] | 2.4 (≈ 9.12 µM) | 2.4 (≈ 9.12 µM) | [3H]-Ade Total uptake (Mpn wild type cells; [5]): 0.41±0.08%; [3H]-Gua Total uptake (Mpn wild type cells; [5]): 0.10±0.02%; [3H]-Hx Total uptake (Mpn wild type cells; [5]): 0.009±0.0002%; [3H]-Ura Total uptake (Mpn wild type cells; [5]): 0.12±0.001%; [3H]-dT Total uptake (Mpn wild type cells; [5]): 5.2±0.4%; [3H]-Ade Incorporation (Mpn wild type cells; [6]): 39±8%; [3H]-Gua Incorporation (Mpn wild type cells; [6]): 90±6%; [3H]-Hx Incorporation (Mpn wild type cells; [6]): 67±7%; [3H]-Ura Incorporation (Mpn wild type cells; [6]): 26±6%; [3H]-dT Incorporation (Mpn wild type cells; [6]): 96.7±1.1%; MIC ([2]; read-out: MIC (Mpn growth), strain not specified, 90% growth inhibition): ~2.5 µg/mL (≈ 9.5 µM); MIC (Mpn growth) ([2]; strain not specified, 90% growth inhibition): approximately 2 μg ml^-1
